The subject of one data set is Staphylococcus aureus. Briefly: Antibacterial activity against Staphylococcus aureus ATCC 29213 assessed as inhibition of bacterial growth incubated for 16 to 20 hrs by CLSI based microdilution method. In kind it is functional. As to conditions: time 16-20 hrs.
Another data set deals with Enterococcus faecalis. The data set can be described thus: Antibacterial activity against Enterococcus faecalis ATCC 29212 assessed as inhibition of bacterial growth incubated for 16 to 20 hrs by CLSI based microdilution method. In kind it is functional. The following applies: time 16-20 hrs. On the technique in general: In broth dilution the organism is exposed to a series of concentrations in liquid medium.

The subject of another data set is Micrococcus luteus. Briefly: Antibacterial activity against Micrococcus luteus assessed as inhibition of bacterial growth incubated for 16 to 20 hrs by CLSI based microdilution method. In kind it is functional. The following applies: time 16-20 hrs.
A further data set relates to Escherichia coli. Briefly: Antibacterial activity against Escherichia coli ATCC 25922 assessed as inhibition of bacterial growth incubated for 16 to 20 hrs by CLSI based microdilution method. In kind it is functional. The following applies: time 16-20 hrs.
For data set [1], the system named is Salmonella enterica. Briefly: Antibacterial activity against Salmonella enterica H9812 assessed as inhibition of bacterial growth incubated for 16 to 20 hrs by CLSI based microdilution method. The following applies: time 16-20 hrs. In kind it is functional.
In data set [2] the test system is Salmonella enterica. The data set can be described thus: Antibacterial activity against Salmonella enterica 8389 assessed as inhibition of bacterial growth incubated for 16 to 20 hrs by CLSI based microdilution method. The following applies: time 16-20 hrs. In kind it is functional.
Data set [3] is described as follows: Hemolytic activity in sheep RBC incubated for 1 hr by absorbance based analysis. In kind it is toxicity, cell-based, Ovis aries, Erythrocyte. As to conditions: sheep red blood cells.
Data set [4] in a line: Selectivity index, ratio of HC50 for hemolytic activity in sheep RBC to MIC for antibacterial activity against Staphylococcus aureus ATCC 29213. In kind it is toxicity. As to conditions: sheep red blood cells.

Values after ≈ are worked out from the molar mass of the structure shown.

As usually defined, the MIC is the smallest concentration in the dilution series that meets the test's criterion for growth inhibition. As a reminder, the HC50 is the concentration giving 50% haemolysis. High values mean weaker haemolysis, low ones stronger haemolysis.

As to `C=CCc1cccc(Oc2ccc(C(=O)CC)cc2)c1OCCCC[N+](C)(C)CC(=O)NCCC.[Br-]`, the MIC was found to be 32 µg/mL in the data set on Staphylococcus aureus; 64 µg/mL in the data set with Enterococcus faecalis; 128 µg/mL in the data set with Micrococcus luteus; 64 µg/mL in the data set on Escherichia coli; 128 µg/mL in the data set with Salmonella enterica [1]; 128 µg/mL with Salmonella enterica [2]. In data set [3], this compound had an HC50 at 1 h of 823 µg/mL. For the same compound, the selectivity ratio in data set [4] came out at 25.7.

`C=CCc1cccc(Oc2ccc(C(=O)CC)cc2)c1OCCCC[N+](C)(C)CC(=O)NCCCCC.[Br-]`: the MIC amounted to 4 µg/mL with Staphylococcus aureus; 8 µg/mL in the data set with Enterococcus faecalis; 16 µg/mL with Micrococcus luteus; 32 µg/mL in the data set on Escherichia coli; 128 µg/mL in the data set on Salmonella enterica [1]; 64 µg/mL with Salmonella enterica [2]. Further, the HC50 at 1 h in data set [3] came out at 564 µg/mL. Moreover, the selectivity ratio in data set [4] was 141.

Regarding `C=CCc1cccc(Oc2ccc(C(=O)CC)cc2)c1OCCCC[N+](C)(C)CC(=O)N(CCCC)CCCC.[Br-]`, the minimal inhibitory concentration (MIC) in the data set with Staphylococcus aureus was 2 µg/mL; with Enterococcus faecalis, 16 µg/mL; in the data set on Micrococcus luteus, 32 µg/mL; in the data set with Escherichia coli, 32 µg/mL; in the data set on Salmonella enterica [1], 64 µg/mL; in the data set with Salmonella enterica [2], 32 µg/mL. This compound showed an HC50 at 1 h in data set [3] of 776 µg/mL. Further, the selectivity ratio in data set [4] is 388.

On to `C=CCc1cccc(Oc2ccc(C(=O)CC)cc2)c1OCCCC[N+](C)(C)CC(=O)NCC.[Br-]`, for which the MIC in the data set on Staphylococcus aureus was determined as 64 µg/mL; in the data set with Enterococcus faecalis, 128 µg/mL; in the data set on Micrococcus luteus, 128 µg/mL; in the data set with Escherichia coli, 64 µg/mL; in the data set on Salmonella enterica [1], 64 µg/mL; in the data set with Salmonella enterica [2] it was 32 µg/mL. The compound also registered an HC50 at 1 h in data set [3] of 785 µg/mL. The selectivity ratio in data set [4] stood at 12.2.

With `C=CCc1cccc(Oc2ccc(C(=O)CC)cc2)c1OCC[N+](C)(C)CC(=O)N(CCC)CCC.[Br-]`, the MIC worked out at 8 µg/mL in the data set on Staphylococcus aureus; 16 µg/mL in the data set on Enterococcus faecalis; 16 µg/mL with Micrococcus luteus; 64 µg/mL in the data set with Escherichia coli; 64 µg/mL in the data set with Salmonella enterica [1]; 32 µg/mL in the data set on Salmonella enterica [2]. This compound had an HC50 at 1 h in data set [3] of 1110 µg/mL. Moreover, the selectivity ratio in data set [4] came to 138.

`Br.C=CCc1cccc(Oc2ccc(C(=O)CC)cc2)c1OCCSC(=N)N`: the minimum inhibitory concentration (MIC) with Staphylococcus aureus was found to be 32 µg/mL; in the data set on Enterococcus faecalis, 64 µg/mL; in the data set on Micrococcus luteus, 64 µg/mL; in the data set with Escherichia coli, 64 µg/mL; in the data set with Salmonella enterica [1], 128 µg/mL; in the data set with Salmonella enterica [2], 64 µg/mL. Besides, the HC50 at 1 h in data set [3] stood at 789 µg/mL. Besides, the selectivity ratio in data set [4] was 24.6.

On to `C=CCc1cccc(Oc2ccc(C(=O)CC)cc2)c1OCCCC[N+](C)(C)CC(=O)N1CCOCC1.[Br-]`, for which the minimal inhibitory concentration (MIC) in the data set on Staphylococcus aureus was 64 µg/mL; with Enterococcus faecalis it was 64 µg/mL; in the data set on Micrococcus luteus, 64 µg/mL; in the data set on Escherichia coli, above 128 µg/mL; with Salmonella enterica [1] it was above 128 µg/mL; in the data set with Salmonella enterica [2] it was above 128 µg/mL. The 50% haemolytic concentration (HC50) at 1 h in data set [3] is 578 µg/mL. The selectivity ratio in data set [4] was 9.

For `C=CCc1cccc(Oc2ccc(C(=O)CC)cc2)c1OCCC[N+](C)(C)CC(=O)NCC.[Br-]`, the MIC with Staphylococcus aureus was 64 µg/mL; in the data set with Enterococcus faecalis, 64 µg/mL; in the data set on Micrococcus luteus, 64 µg/mL; with Escherichia coli it was 64 µg/mL; in the data set on Salmonella enterica [1], above 128 µg/mL; in the data set with Salmonella enterica [2], above 128 µg/mL. In data set [3], this compound came in with an HC50 at 1 h of 501 µg/mL. Besides, in data set [4], the selectivity ratio is 7.8.

Regarding `C=CCc1cccc(Oc2ccc(C(=O)CC)cc2)c1OCCCC[N+](C)(C)CC(=O)N(CCC)CCC.[Br-]`, the MIC with Staphylococcus aureus stood at 32 µg/mL; with Enterococcus faecalis, 32 µg/mL; in the data set on Micrococcus luteus it was 64 µg/mL; in the data set with Escherichia coli, 64 µg/mL; in the data set with Salmonella enterica [1], 128 µg/mL; in the data set on Salmonella enterica [2], 128 µg/mL. The HC50 at 1 h in data set [3] was 933 µg/mL. Further, in data set [4], the selectivity ratio was 29.1.

On to `C=CCc1cccc(Oc2ccc(C(=O)CC)cc2)c1OCC[N+](C)(C)CC(=O)NCC.[Br-]`, for which the MIC was 32 µg/mL with Staphylococcus aureus; 32 µg/mL in the data set on Enterococcus faecalis; 32 µg/mL in the data set with Micrococcus luteus; 64 µg/mL in the data set with Escherichia coli; 128 µg/mL in the data set with Salmonella enterica [1]; 128 µg/mL in the data set on Salmonella enterica [2]. In data set [3], this compound came in with a concentration for 50% haemolysis (HC50) at 1 h of 509 µg/mL. Moreover, the selectivity ratio in data set [4] is 15.9.

As to `C=CCc1cccc(Oc2ccc(C(=O)CC)cc2)c1OCCC[N+](C)(C)CC(=O)NCCC.[Br-]`, the MIC in the data set on Staphylococcus aureus is 64 µg/mL; in the data set with Enterococcus faecalis, 64 µg/mL; with Micrococcus luteus, 64 µg/mL; in the data set on Escherichia coli it was 64 µg/mL; in the data set with Salmonella enterica [1], 32 µg/mL; in the data set on Salmonella enterica [2], 64 µg/mL. Moreover, in data set [3], the HC50 at 1 h is above 1280 µg/mL. For the same compound, the selectivity ratio in data set [4] was above 20.

As for `C=CCc1cccc(Oc2ccc(C(=O)CC)cc2)c1OCC[N+](C)(C)CC(=O)NCCCCC.[Br-]`, the MIC amounted to 8 µg/mL with Staphylococcus aureus; 16 µg/mL in the data set on Enterococcus faecalis; 16 µg/mL in the data set on Micrococcus luteus; 32 µg/mL with Escherichia coli; 64 µg/mL with Salmonella enterica [1]; 64 µg/mL in the data set on Salmonella enterica [2]. The HC50 at 1 h in data set [3] worked out at 1550 µg/mL. In addition, the selectivity ratio in data set [4] stood at 194.

Consider `C=CCc1cccc(Oc2ccc(C(=O)CC)cc2)c1OCC[N+](C)(C)CC(=O)N(CC)CC.[Br-]`, for which the MIC with Staphylococcus aureus is 64 µg/mL; with Enterococcus faecalis, 64 µg/mL; in the data set with Micrococcus luteus, 32 µg/mL; in the data set with Escherichia coli, 128 µg/mL; in the data set on Salmonella enterica [1] it was above 128 µg/mL; in the data set on Salmonella enterica [2] it was above 128 µg/mL. For the same compound, in data set [3], the concentration for 50% haemolysis (HC50) at 1 h worked out at 690 µg/mL. Also, the selectivity ratio in data set [4] was 10.8.

Take `C=CCc1ccc(O)c(Oc2ccc(C(=O)CC)cc2)c1`: the MIC is 128 µg/mL (≈ 453 µM) in the data set on Staphylococcus aureus; 128 µg/mL (≈ 453 µM) with Enterococcus faecalis; 64 µg/mL (≈ 227 µM) in the data set on Micrococcus luteus; 128 µg/mL (≈ 453 µM) in the data set on Escherichia coli; 128 µg/mL (≈ 453 µM) in the data set with Salmonella enterica [1]; above 128 µg/mL with Salmonella enterica [2]. In data set [3], this compound had an HC50 at 1 h above 640 µg/mL. In data set [4], the selectivity ratio was above 5.

`C=CCc1cccc(Oc2ccc(C(=O)CC)cc2)c1OCCCC[N+](C)(C)CC(=O)NCCCC.[Br-]`: the MIC with Staphylococcus aureus is 8 µg/mL; in the data set on Enterococcus faecalis, 16 µg/mL; in the data set with Micrococcus luteus, 16 µg/mL; with Escherichia coli it was 64 µg/mL; in the data set on Salmonella enterica [1], 128 µg/mL; in the data set on Salmonella enterica [2], 32 µg/mL. The HC50 at 1 h in data set [3] came to 1110 µg/mL. In data set [4], the selectivity ratio stood at 138.

As to `C=CCc1cccc(Oc2ccc(C(=O)CC)cc2)c1OCC[N+](C)(C)CC(=O)N1CCCC1.[Br-]`, the MIC in the data set on Staphylococcus aureus is 32 µg/mL; in the data set on Enterococcus faecalis, 64 µg/mL; in the data set on Micrococcus luteus it was 32 µg/mL; in the data set on Escherichia coli, 128 µg/mL; in the data set with Salmonella enterica [1] it was 64 µg/mL; in the data set with Salmonella enterica [2], above 128 µg/mL. Besides, the HC50 at 1 h in data set [3] stood at 543 µg/mL. In addition, the selectivity ratio in data set [4] is 17.

For `CCCCCCNC(=O)C[N+](C)(C)CCOc1ccccc1Oc1ccc(C(=O)CC)cc1.[Br-]`, the MIC is 16 µg/mL in the data set on Staphylococcus aureus and above 128 µg/mL in the data set on Escherichia coli. In data set [3], this compound gave an HC50 at 1 h of 918 µg/mL. In addition, the selectivity ratio in data set [4] was found to be 57.4.

Regarding `C[C@@H](O)[C@H]1C(=O)N2C(C(=O)O)=C(S[C@@H]3CN[C@H](C(=O)N(C)C)C3)[C@H](C)[C@H]12` [MEROPENEM], the MIC in the data set on Escherichia coli, with Salmonella enterica [1] and with Salmonella enterica [2] was 0.125 µg/mL (≈ 0.326 µM) each time.

As to `CCCCCCNC(=O)C[N+](C)(C)CCCOc1ccccc1Oc1ccc(C(=O)CC)cc1.[Br-]`, the MIC in the data set with Staphylococcus aureus is 4 µg/mL; with Escherichia coli, above 128 µg/mL. The same compound had an HC50 at 1 h in data set [3] of 536 µg/mL. Besides, the selectivity ratio in data set [4] was 134.

The values are drawn from ChEMBL document CHEMBL5236634, “Membrane-Targeting Neolignan-Antimicrobial Peptide Mimic Conjugates to Combat Methicillin-Resistant Staphylococcus aureus (MRSA) Infections” (J Med Chem, 2022).
